Results on one compound are retold here after publication PMC10730845, “Endoxifen downregulates AKT phosphorylation through protein kinase C beta 1 inhibition in ERα+ breast cancer” (NPJ Breast Cancer, 2023).

For assay [1], the target named is PKC nu (PKCn/PRKD3) (Homo sapiens, UniProt O94806). The assay is described as follows: In vitro kinase assay, PKC nu. It counts as biochemical. Particulars: 10 μM ATP. From the text: (§1) Supplementary Table 4. In vitro kinase assay showing the IC 50 concentration of ENDX and
Sequence of PKC nu (PKCn/PRKD3) (O94806 whole entry): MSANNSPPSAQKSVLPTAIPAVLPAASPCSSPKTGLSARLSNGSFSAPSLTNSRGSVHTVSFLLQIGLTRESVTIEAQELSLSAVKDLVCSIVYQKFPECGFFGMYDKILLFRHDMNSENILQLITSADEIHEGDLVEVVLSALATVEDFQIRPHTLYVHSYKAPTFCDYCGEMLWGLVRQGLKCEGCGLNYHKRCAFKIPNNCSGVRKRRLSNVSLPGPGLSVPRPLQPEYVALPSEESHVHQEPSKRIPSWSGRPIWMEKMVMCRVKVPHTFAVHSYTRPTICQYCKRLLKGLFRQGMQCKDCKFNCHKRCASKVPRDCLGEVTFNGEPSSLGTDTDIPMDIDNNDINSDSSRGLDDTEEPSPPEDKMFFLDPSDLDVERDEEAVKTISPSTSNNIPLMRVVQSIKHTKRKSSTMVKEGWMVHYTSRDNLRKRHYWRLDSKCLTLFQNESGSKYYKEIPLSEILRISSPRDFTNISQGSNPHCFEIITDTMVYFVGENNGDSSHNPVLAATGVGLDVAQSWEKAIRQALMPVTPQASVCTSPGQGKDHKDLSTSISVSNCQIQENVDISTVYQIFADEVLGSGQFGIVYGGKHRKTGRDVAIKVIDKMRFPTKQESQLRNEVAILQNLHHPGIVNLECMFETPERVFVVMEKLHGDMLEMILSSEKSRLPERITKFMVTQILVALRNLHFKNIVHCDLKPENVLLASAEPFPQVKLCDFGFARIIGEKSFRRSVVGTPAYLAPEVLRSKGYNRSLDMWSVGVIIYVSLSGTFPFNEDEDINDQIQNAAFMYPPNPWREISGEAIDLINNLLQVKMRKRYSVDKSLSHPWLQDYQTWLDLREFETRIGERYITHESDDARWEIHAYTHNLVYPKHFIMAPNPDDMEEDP
(§2) of the 12 PKC family members.
(§3) (1 picture or pasted object on this page, not shown here)

Assay [2] concerns PKCβ1 in MCF7AC1 cells. As to the kind of experiment: Immunoblot of PKCβ1 and pPKCβ1^Ser661, MCF7AC1. Format: cell-based, human. Particulars: serum starved; for Effect on PMA-stimulated PKCβ1^Ser661 phosphorylation: 2 h pretreatment, 200 nM PMA 20 min. As for the experimental part:
The ENDX hydrochloride utilized in this study was synthesized in collaboration between Mayo Clinic and National Institute of Health (NIH). Estrogen deprived MCF7AC1 were treated with vehicle control or ENDX (National Cancer Institute) for 24 h. For the phorbol 12-myristate 13-acetate (PMA) (LC Laboratories, #P-1680) experiments, MCF7AC1 cells were maintained in serum-free medium for 24 h prior to pretreatment with vehicle or ENDX for 2 h followed by treatment with 20 or 200 nM PMA for 20 min. For the insulin (Sigma-Aldrich, #I0516) experiments, MCF7AC1 and T47D cells were maintained in serum-free medium for 24 h prior to pretreatment with vehicle control or drugs for 2 h followed by treatment with 100 nM insulin for 1 h.
(§4) Protein lysates were prepared using the RIPA lysis buffer system (ChemCruz #sc-24948) and quantified using the DC^TM Protein Assay reagents (Bio-Rad #5000112). Equal amounts of protein lysates were separated on 10% Criterion gels (Bio-Rad #3450112), transferred to PVDF membranes (Bio-Rad #1620177), blocked in TBST-5% milk and probed with primary antibodies listed in Supplementary Table 5, at the indicated dilutions. Membranes were incubated with HRP-conjugated anti-rabbit (CST #7074) or anti-mouse (CST #7076) secondary antibodies and visualized using chemiluminescent West Pico (Thermo Scientific #34580) or West Femto (Thermo Scientific #34096) reagents and a Li-Cor Odyssey® XF imager. Protein lysates from the MCF7AC1 xenograft model were obtained from a previous study. Quantitation of the protein bands signal intensity was performed using the NIH ImageJ image analysis software (https://imagej.nih.gov/ij///index.html). For the quantitation of the phospho protein levels, we first normalized total protein levels to β-actin loading control and used these values to normalize the phospho protein levels and compared change in protein expression levels relative to vehicle control normalized to 1.0. For the quantitation of total protein levels, we normalized the total protein levels to β-actin and compared change in expression levels relative to vehicle control normalized to 1.0. All blots were processed in parallel and derived from the same experiments. Unprocessed immunoblot images are provided in Supplementary Figs. 9–13.

Assay [3] has as its system T47D-LTED cells. As to the kind of experiment: Crystal violet cell viability assay, T47D-LTED. It counts as cell-based, human. Particulars: CSS media, six days; 5 µM. As for the experimental part:
Cells were plated at a density of 2000 cells per well. Cell viability of (i) vehicle or drug treated MCF7AC1 and T47D-LTED cells in CSS medium, (ii) siNT or siPKCβ-transfected MCF7AC1 cells in CSS medium and (iii) T47D cells in FBS versus CSS medium were analyzed by crystal violet staining assay after 6 days of treatment or siRNA transfection as previously described. Cell viability was calculated as the average absorbance of the drug treated cells divided by the average absorbance of the vehicle treated cells × 100.
Supplementary Figure 6. […] Cell viability is assessed by the crystal violet assay. b, MCF7AC1 cells were co-treated with vehicle control or 0.01, 0.1 and 5 µM MK-2206 and IncuCyte Annexin V green and NucLight rapid red reagents in CSS medi um for 48 hours. […]
Cells were plated at a density of 2000 cells per well. c, MCF7AC1 cells were treated with vehicle control or 0.01, 0.1 and 5 µM MK-2206 in CSS medium for 24 hours. […] Cell viability is assessed by the crystal violet assay. f, Parental T47D and T47D-LTED cells were processed for protein lysates. […] Cell viability is assessed by the crystal violet assay. h, T47D-LTED cells were co-treated with vehicle control or 0.01, 0.1 and 5 µM MK -2206 and IncuCyte Annexin V green and NucLight rapid red reagents in CSS medium for 48 hours. […] Cell viability is assessed by the crystal violet assay. […]

Assay [4] addresses PKC thetha (PKCq) (Homo sapiens, UniProt Q04759). The assay is described as follows: In vitro kinase assay, PKC thetha. It counts as biochemical. Particulars: 10 μM ATP.
Text: . The IC50 concentrations of these drugs in inhibiting PKC kinase activity are provided in Supplementary Table 4.
as §1, §2
*: not available due to no inhibition or compound activity that could not be fit to an IC50 curve.
Staurosporine serves as the positive control.
as §3

The target of assay [5] is PKC beta 2 (PKCb2) (Homo sapiens, UniProt P05771). As to the kind of experiment: In vitro kinase assay, PKC beta 2. Conditions: 10 μM ATP. Format: biochemical.
Sequence of PKC beta 2 (PKCb2) (P05771 1-673 isoform P05771-2): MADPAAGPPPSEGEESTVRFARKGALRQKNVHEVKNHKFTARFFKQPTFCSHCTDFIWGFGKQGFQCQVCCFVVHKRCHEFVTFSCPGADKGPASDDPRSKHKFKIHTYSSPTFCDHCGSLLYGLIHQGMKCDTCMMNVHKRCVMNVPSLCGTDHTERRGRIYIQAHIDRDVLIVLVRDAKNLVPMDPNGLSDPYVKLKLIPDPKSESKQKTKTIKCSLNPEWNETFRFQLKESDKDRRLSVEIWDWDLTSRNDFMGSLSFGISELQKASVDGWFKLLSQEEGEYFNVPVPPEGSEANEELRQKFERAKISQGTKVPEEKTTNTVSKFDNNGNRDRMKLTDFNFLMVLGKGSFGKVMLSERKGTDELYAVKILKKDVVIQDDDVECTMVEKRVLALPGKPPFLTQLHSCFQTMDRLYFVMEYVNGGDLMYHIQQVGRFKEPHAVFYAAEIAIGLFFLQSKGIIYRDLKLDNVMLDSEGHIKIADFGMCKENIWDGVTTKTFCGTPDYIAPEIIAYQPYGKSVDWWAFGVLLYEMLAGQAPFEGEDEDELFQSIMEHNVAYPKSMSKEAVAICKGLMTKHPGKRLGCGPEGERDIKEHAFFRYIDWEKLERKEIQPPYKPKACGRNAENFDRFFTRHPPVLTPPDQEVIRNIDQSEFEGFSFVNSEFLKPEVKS
Text: as §1, §2, §3

Assay [6] deals with AKT^Ser473 phosphorylation in T47D-LTED cells. The assay is described as follows: Immunoblot of pAKT^Ser473, T47D-LTED. Format: cell-based, human. Conditions: CSS medium, 24 h; 5 µM. As for the experimental part: as §4, with “All blots were processed in parallel and derived from the same experiments. Unprocessed immunoblot images are provided in Supplementary Figs. 9–13.” left out
On the technique in general: A western blot detects proteins with antibodies after separation by electrophoresis.

Sequence of PKC thetha (PKCq) (Q04759 whole entry): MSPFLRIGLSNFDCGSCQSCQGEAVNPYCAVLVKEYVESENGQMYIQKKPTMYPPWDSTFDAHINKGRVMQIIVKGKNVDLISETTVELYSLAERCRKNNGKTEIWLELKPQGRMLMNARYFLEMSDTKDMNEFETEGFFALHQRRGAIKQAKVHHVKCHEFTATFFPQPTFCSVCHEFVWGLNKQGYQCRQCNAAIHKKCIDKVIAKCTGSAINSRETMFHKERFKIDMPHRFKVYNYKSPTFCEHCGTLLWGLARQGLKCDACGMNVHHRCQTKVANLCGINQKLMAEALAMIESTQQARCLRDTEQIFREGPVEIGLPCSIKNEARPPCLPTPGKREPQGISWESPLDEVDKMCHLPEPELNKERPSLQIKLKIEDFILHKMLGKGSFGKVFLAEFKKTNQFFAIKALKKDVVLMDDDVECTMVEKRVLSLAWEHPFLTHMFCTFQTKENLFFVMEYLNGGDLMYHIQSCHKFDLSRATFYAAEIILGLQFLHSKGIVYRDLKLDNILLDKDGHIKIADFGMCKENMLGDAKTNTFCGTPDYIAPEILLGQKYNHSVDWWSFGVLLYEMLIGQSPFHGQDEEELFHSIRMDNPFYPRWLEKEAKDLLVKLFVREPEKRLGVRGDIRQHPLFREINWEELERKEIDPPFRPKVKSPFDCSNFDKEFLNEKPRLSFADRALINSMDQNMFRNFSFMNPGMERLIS

What is called IC50 is the concentration that inhibits the measured activity by half. Higher therefore signals weaker potency. On to `CC/C(=C(\c1ccc(O)cc1)c1ccc(OCCNC)cc1)c1ccccc1` [ENDX, Z-endoxifen], for which the IC50 worked out at 26.4 µM in assay [1], 41.8 µM in assay [4] and 43.3 µM in assay [5]. The “Effect on PKCβ1^Ser661 phosphorylation in insulin treated cells” value in assay [2] (100 nM insulin 1 h) is “no effects on PKCβ1^Ser661 phosphorylation”. In addition, the “Effect on PKCβ1 total protein in insulin treated cells” value in assay [2] (100 nM insulin 1 h, ENDX 0.01, 0.1, 5 µM, TAM 0.1 µM, ICI 0.1 µM) was “reduced PKCβ1 total protein levels”. Moreover, the “Effect on PMA-stimulated PKCβ1^Ser661 phosphorylation” value in assay [2] (5 μM) is reported as “minimal”; in assay [2] (0.01, 0.1 μM), “no”. For the same compound, in assay [2] (PMA-stimulated, 0.01, 0.1 and 5 μM tested), the “Concentration robustly reducing PKCβ1 total protein levels” value turned out to be 5 µM. Besides, the Effect on growth entry in assay [3] was “inhibited growth”. In assay [6], the “Effect on AKT^Ser473 phosphorylation” value was “attenuated AKT^Ser473 phosphorylation”.
